Experimental data taken from article PMC6100512, “In-Vitro Activity of Silybin and Related Flavonolignans against Leishmania infantum and L. donovani” (Molecules : A Journal of Synthetic Chemistry and Natural …, 2018).

What was measured:
Li UCM9 promastigotes = test: Multiplication of Li promastigotes in vitro (CellTiter-Glo, 24 h); assay type: cell-based, Leishmania infantum; conditions: for inhibition of growth at 120 µM: compared to untreated cultures, mean ± SD, read-out: Reduction (%) of multiplication, L infantum promastigotes
Description: (§1) Growth was estimated by the addition of CellTiter-Glo® (Promega, Madison, WI, USA) (1:1) in 96-well microtiter white plates (Costar, Corning). After 10 min incubation (light protected, room temperature), luminescence was determined with FLUOstar Omega (BMG Labtech) reader. Sensitivity of Ld was similarly performed with promastigotes exposed to 120 μM. Control cultures (medium, untreated promastigotes, promastigotes treated with 0.2 μM AmB) were included. Experiment was carried out in triplicate and results expressed as % of inhibition of untreated control. Approximate IC50 values of the flavonolignans showing the highest inhibitory activity against Li mid-log-phase promastigotes were determined using dose-response curves. […] The compound with the highest activity, DhiS-A, was assayed against Ld promastigotes using the latter dilution series and the same culture conditions as above. For comparative purposes, mid-log promastigotes of Li and Ld were exposed to established anti-Leishmania agents: AmB (0.0078 μ[…] and 1.0 μM); […]

Ld promastigotes = test: Multiplication of Ld promastigotes in vitro (CellTiter-Glo, 24 h); assay type: cell-based, L. donovani; conditions: Leishmania donovani; for inhibition of growth at 120 µM: compared to untreated cultures, mean ± SD, read-out: Reduction (%) of multiplication, L. donovani promastigotes
Description: as §1

Li promastigotes = test: Drug combination with DhiS-A, Chou-Talalay method (CalcuSyn); assay type: cell-based, Leishmania infantum; conditions: for DRI of DhiS-A in combination with AmB / Dose Required of DhiS-A in combination with AmB: AmB:DhiS-A 0.01:15; for Dose Required of DhiS-A in combination with AmB / Dose Required of DhiS-A in combination with PMM / Dose Required of DhiS-A in combination with Sb^III: computer-simulated; for DRI of DhiS-A in combination with PMM / Dose Required of DhiS-A in combination with PMM: PMM:DhiS-A 5:1; for DRI of DhiS-A in combination with Sb^III / Dose Required of DhiS-A in combination with Sb^III: Sb^III:DhiS-A 1:1
Description: Fixed-combination ratios of drugs were based on the IC50 values determined for the individual molecules. Mid-log-phase promastigotes of Li were exposed for 24 h at constant ratios of 0.01:15 (AmB:DhiS-A), 1:1 (Sb^III:DhiS-A) and 5:1 (PMM:DhiS-A). Dose–response curves of the combinations were analyzed with the Chou–Talalay method, based on the theorem of combination index (CI)-isobologram and CalcuSyn software. This method allows the evaluation of the type of interaction between two molecules according to mass action law. Results can be used to determine quantitatively the synergy (CI < 1), additive effect (CI = 1) or antagonism (CI > 1) of combinations. Moreover, the program allows the calculation of the drug reduction index (DRI): dose reduction in drug combinations to reach a given inhibition compared to the activity of the individual drugs.

[1] = tested on: BALB/c mouse peritoneal macrophages, Mφ; test: Toxicity of flavonolignans for macrophages (CellTiter-Glo); assay type: cell-based; conditions: Peritoneal macrophage, 24 h, 28.125 to 900 µM, approximate
Description: Toxicity of flavonolignans for mammalian cells was determined using mouse peritoneal Mφ. Cells obtained were counted and seeded onto 96-well cultures plates (Costar, Corning) at a final concentration of 5 × 10^4 Mφ/well (100 µL/well). Plates were incubated overnight at 37 °C and humidified 5% CO2/95% air to facilitate adherence. Cells were cultured as above for 24 h with different concentrations of the flavonolignans (28.125 µM, 56.25 µM, 112.5 µM, 225 µM, 450 µM and 900 µM). After incubation, cell viability was determined with CellTiter-Glo® as previously described. Untreated and 300 µM AmB-treated control wells were included. Experiments were done in triplicate and approximate IC50 determined.

[2] = tested on: intracellular amastigotes of Li BCN150; test: Activity against intracellular amastigotes ex vivo in mouse peritoneal Mφ; assay type: cell-based, Leishmania infantum; conditions: 24 h
Description: (§2) Antiproliferative activity of flavonolignans against intracellular amastigotes was determined ex vivo using mouse peritoneal Mφ. Infections were carried out following the method and modifications described by us. Briefly, Mφ were seeded onto 8-well cell culture slides (SLP, Lifesciences Co., Pocheon, Korea) in a final volume of 400 µL (2.5 × 10^4 Mφ/well). Plates were incubated overnight at 37 °C under humidified 5% CO2/95% air atmosphere to facilitate adherence. Stationary-phase promastigotes of Ld and Li were centrifuged (370× g, 10 min) without break in a Ficoll (Sigma, Saint Louis, MO, USA) gradient (0%, 10% in Medium 199 and 30% in sterile phosphate-buffered saline). Metacyclic promastigotes, located in the 10–30% Ficoll interphase, were recovered, washed and opsonized in 15% normal mouse serum in 1:1 solution of RPMI and HBSS medium (Gibco, Life Technologies, Paisley, UK), 0.15 mM CaCl2 and 1 mM MgCl2 at 37 °C, 5% CO2 atmosphere for 30 min. Purified metacyclic promastigotes were added to the Mφ cultures using a ratio 4:1 (promastigotes:Mφ) for Li and 10:1 for Ld. Plates were incubated at 33 °C overnight as above. Noninternalized promastigotes were eliminated by repeated washing with fresh medium. Treatments (10 µM) were added to the cultures and kept for 24 h. Slides were methanol-fixed and stained with May–Grünwald Giemsa (Merck) to determine the % of infection and the number of amastigotes/100 Mφ under microscope. Cultures untreated, treated with 0.05% DMSO and treated with 0.1 µM AmB were included as controls. Experiments were done in triplicate and the activity was expressed as % of inhibition compared to untreated cultures.

[3] = tested on: intracellular amastigotes of Ld; test: as above; assay type: cell-based, L. donovani; conditions: 24 h
Description: as §2, with “Slides were methanol-fixed and stained with May–Grünwald Giemsa (Merck) to determine the % of infection and the number of amastigotes/100 Mφ under microscope. Cultures untreated, treated with 0.05% DMSO and treated with 0.1 µM AmB were included as controls.” left out

amastigotes of L. major = tested on: amastigotes of L. major; design: method as in PMID 29716183; conditions: cited from earlier work
L. major promastigotes = tested on: L. major promastigotes; design: method as in PMID 29716183; conditions: 12.5 µM; cited from earlier work

COc1cc([C@H]2Oc3ccc(-c4oc5cc(O)cc(O)c5c(=O)c4O)cc3O[C@@H]2CO)ccc1O [Dehydroisosilybin A, dehydroisosilybin A]
inhibition of growth at 120 µM (Li UCM9 promastigotes; Leishmania infantum, 24 h): 38.3 ± 4.96% | IC50 (Li UCM9 promastigotes; Leishmania infantum, approximate, dose-response curve, 24 h): ~90.2 µM | Emax (Li UCM9 promastigotes; Leishmania infantum, exploratory screening, 0.94 µM up to 120 µM, read-out: Maximal effect (inhibition of growth of control cultures) on Li promastigotes): < 50% | Inhibition of Li promastigote multiplication reached in dose-response curve (Li UCM9 promastigotes; maximal concentration used 480/600 µM): complete inhibition | inhibition of growth at 120 µM (Ld promastigotes): 87.6 ± 2.82% | IC50 (Ld promastigotes; approximate, dose-response curve): ~90.2 µM | DRI of DhiS-A in combination with AmB (Li promastigotes; ED10): 0.88 | Dose Required of DhiS-A in combination with AmB (Li promastigotes; ED10): 34.79 µM | DRI of DhiS-A in combination with AmB (Li promastigotes; ED25): 1.13 | Dose Required of DhiS-A in combination with AmB (Li promastigotes; ED25): 44.61 µM | DRI of DhiS-A in combination with AmB (Li promastigotes; ED50): 1.47 | Dose Required of DhiS-A in combination with AmB (Li promastigotes; ED50): 57.21 µM | DRI of DhiS-A in combination with PMM (Li promastigotes; ED50): 0.51 | Dose Required of DhiS-A in combination with PMM (Li promastigotes; ED50): 164 µM | DRI of DhiS-A in combination with Sb^III (Li promastigotes; ED50): 1.50 | Dose Required of DhiS-A in combination with Sb^III (Li promastigotes; ED50): 56 µM | DRI of DhiS-A in combination with AmB (Li promastigotes; ED75): 1.90 | Dose Required of DhiS-A in combination with AmB (Li promastigotes; ED75): 73.36 µM | DRI of DhiS-A in combination with PMM (Li promastigotes; ED75): 0.60 | Dose Required of DhiS-A in combination with PMM (Li promastigotes; ED75): 229 µM | DRI of DhiS-A in combination with Sb^III (Li promastigotes; ED75): 0.99 | Dose Required of DhiS-A in combination with Sb^III (Li promastigotes; ED75): 141.12 µM | DRI of DhiS-A in combination with AmB (Li promastigotes; ED90): 2.91 | Dose Required of DhiS-A in combination with AmB (Li promastigotes; ED90): 94.08 µM | DRI of DhiS-A in combination with PMM (Li promastigotes; ED90): 0.72 | Dose Required of DhiS-A in combination with PMM (Li promastigotes; ED90): 318 µM | DRI of DhiS-A in combination with Sb^III (Li promastigotes; ED90): 0.65 | Dose Required of DhiS-A in combination with Sb^III (Li promastigotes; ED90): 355.63 µM | DRI of DhiS-A in combination with AmB (Li promastigotes; ED95): 4.28 | Dose Required of DhiS-A in combination with AmB (Li promastigotes; ED95): 111.42 µM | DRI of DhiS-A in combination with PMM (Li promastigotes; ED95): 0.81 | Dose Required of DhiS-A in combination with PMM (Li promastigotes; ED95): 399 µM | DRI of DhiS-A in combination with Sb^III (Li promastigotes; ED95): 0.49 | Dose Required of DhiS-A in combination with Sb^III (Li promastigotes; ED95): 666.84 µM | IC50 [1]: ~30 µM | Antileishmanial activity on intracellular amastigotes (in words) ([2]; 10 µM): ineffective against amastigotes | Intracellular burdens (amastigotes/100 Mφ) after treatment, Li ([2]; 10 µM): did not show any reduction | Antileishmanial activity on intracellular amastigotes (in words) ([2]; 10 µM, listed as DhiS-A): did not show any antiproliferative activity | Mφ infection (%), Li ([2]; treated with 10 µM, nontreated 50.67 ± 4.62%): 45.67 ± 7.51% | Intracellular burdens (amastigotes/100 Mφ) after treatment, Ld ([3]; 10 µM): did not show any reduction | Mφ infection (%), Ld ([3]; treated with 10 µM, nontreated 69.67 ± 8.50%): 67.0 ± 6.08%

COc1cc(C2Oc3cc([C@H]4Oc5cc(O)cc(O)c5C(=O)[C@@H]4O)ccc3OC2CO)ccc1O (stereo partly drawn) [Silybin AB, silybin AB]
inhibition of growth at 120 µM (Li UCM9 promastigotes; Leishmania infantum, 24 h): 5.4 ± 2.02% | Inhibition on Li promastigotes (in words) (Li UCM9 promastigotes; exploratory screening, 0.94 µM up to 120 µM): neither silymarin nor the main component, silybin, elicited any inhibition | inhibition of growth at 120 µM (Ld promastigotes): 37 ± 3.91% | Antileishmanial activity on intracellular amastigotes (in words) ([2]; 10 µM): no antileishmanial activity was found | Inhibition of the multiplication of amastigotes of L. major (amastigotes of L. major): 53%

antimoniate of N-methyl glucamine [Sb^V, reference compound]
Sensitivity of Li promastigotes (in words) (Li UCM9 promastigotes; dose-response 3.75-480 µM): insensitive | Reduction of the multiplication of L. major promastigotes (L. major promastigotes): ca. 70%
